Experimental data reported in patent US6972296B2, “Carboxylic acid derivatives that inhibit the binding of integrins to their receptors” (Encysive Pharmaceuticals Inc., priority 1999, dated 2005).
Each block holds one compound with its values, some of them ahead of it.

Biological target: T1, α4β1 integrin (Homo sapiens, UniProt P05556+P13612)
T1 construct: endogenous in cells; host or cells: Ramos cells
Assay: Adhesion of calcein-labeled Ramos cells to CS1 (fibronectin) peptide conjugated ovalbumin
Assay type: cell-based
Details: Ramos cell adhesion to CS1 conjugated ovalbumin
Procedure, shortened: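 Plates bearing CS1 fibronectin peptide coupled to ovalbumin (0.5 μg/ml coat, 3% BSA block) received calcein-labelled Ramos cells plus compound (100 μM stated) for 30 min at 37 °C. Buffer was TBS pH 7.5 with 1 mM Mg2+, Ca2+, Mn2+; bound cells quantified by fluorescence after lysis; […].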

[1] = Table 5, dose required to give 50% inhibition
[2] = Table 7, dose required to give 50% inhibition

T1 sequence (P13612 34-1032): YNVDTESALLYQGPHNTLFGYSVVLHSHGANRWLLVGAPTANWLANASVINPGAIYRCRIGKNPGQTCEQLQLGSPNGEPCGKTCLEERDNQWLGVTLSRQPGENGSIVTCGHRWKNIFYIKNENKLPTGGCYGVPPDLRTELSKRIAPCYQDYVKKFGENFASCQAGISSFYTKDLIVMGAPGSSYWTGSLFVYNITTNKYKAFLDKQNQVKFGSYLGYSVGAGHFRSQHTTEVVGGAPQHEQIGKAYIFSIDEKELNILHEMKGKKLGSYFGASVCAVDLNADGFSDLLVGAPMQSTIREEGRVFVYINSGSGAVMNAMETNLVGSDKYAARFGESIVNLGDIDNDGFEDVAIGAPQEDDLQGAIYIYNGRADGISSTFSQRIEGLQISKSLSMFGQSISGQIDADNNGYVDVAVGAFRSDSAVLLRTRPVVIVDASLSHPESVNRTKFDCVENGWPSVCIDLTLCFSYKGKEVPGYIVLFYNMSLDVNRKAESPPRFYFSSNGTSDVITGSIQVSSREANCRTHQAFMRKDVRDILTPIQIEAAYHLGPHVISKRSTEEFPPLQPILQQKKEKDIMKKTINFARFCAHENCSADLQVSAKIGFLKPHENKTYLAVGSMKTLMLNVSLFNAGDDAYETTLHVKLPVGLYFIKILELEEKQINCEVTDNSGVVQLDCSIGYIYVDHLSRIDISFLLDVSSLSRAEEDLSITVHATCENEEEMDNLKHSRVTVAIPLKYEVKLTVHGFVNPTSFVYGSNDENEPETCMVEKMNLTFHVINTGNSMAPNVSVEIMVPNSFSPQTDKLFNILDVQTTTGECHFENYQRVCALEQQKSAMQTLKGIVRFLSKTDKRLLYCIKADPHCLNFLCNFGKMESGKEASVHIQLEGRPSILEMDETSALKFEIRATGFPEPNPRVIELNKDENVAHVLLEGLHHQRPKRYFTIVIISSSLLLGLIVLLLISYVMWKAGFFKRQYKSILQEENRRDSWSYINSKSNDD
T1 sequence (P05556 21-798): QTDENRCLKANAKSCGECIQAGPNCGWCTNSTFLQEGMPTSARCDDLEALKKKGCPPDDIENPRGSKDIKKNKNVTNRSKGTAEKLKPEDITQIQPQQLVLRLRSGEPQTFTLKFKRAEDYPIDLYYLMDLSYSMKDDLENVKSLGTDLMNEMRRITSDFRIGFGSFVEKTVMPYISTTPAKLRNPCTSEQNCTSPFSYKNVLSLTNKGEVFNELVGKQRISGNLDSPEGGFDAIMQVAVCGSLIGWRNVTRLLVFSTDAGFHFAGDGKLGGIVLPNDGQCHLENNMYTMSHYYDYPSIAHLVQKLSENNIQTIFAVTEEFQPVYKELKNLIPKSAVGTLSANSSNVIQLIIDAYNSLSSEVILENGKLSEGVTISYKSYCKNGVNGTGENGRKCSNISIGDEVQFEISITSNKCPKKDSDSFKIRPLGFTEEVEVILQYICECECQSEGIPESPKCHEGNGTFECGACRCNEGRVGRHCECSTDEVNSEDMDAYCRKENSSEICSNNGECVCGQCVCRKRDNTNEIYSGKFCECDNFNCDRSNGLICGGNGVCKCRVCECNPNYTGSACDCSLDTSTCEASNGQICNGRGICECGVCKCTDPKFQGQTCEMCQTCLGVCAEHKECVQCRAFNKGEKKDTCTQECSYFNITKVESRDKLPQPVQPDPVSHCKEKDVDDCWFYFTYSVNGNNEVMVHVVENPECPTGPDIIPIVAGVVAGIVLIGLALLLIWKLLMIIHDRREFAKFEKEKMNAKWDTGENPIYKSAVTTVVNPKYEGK

- IC50 (Table 6, 30 minutes at 37° C.): 3 nM
SMILES: CCOc1cccc([C@H](CC(=O)O)NC(=O)Nc2c(O)ccn(Cc3c(Cl)cccc3OCC)c2=O)c1 [(3S)-3-[({[1-(2-chloro-6-ethoxybenzyl)-4-hydroxy-2-oxo-1,2-dihydropyridin-3-yl]amino}carbonyl)amino]-3-(3-ethoxyphenyl)propanoic acid]

- IC50 [2]: 5 nM
SMILES: O=C(O)C[C@H](NC(=O)Nc1c(O)c2c(n(Cc3ccccc3Cl)c1=O)CCC2)c1cccc(OC(F)F)c1 [(3S)-3-{[({1-[(2-chlorophenyl)methyl]-4-hydroxy-2-oxo-2,5,6,7-tetrahydro-1H-cyclopenta[b]pyridin-3-yl}amino)carbonyl]amino}-3-{3-[(difluoromethyl)oxy]phenyl}propanoic acid]

- IC50 (Table 6, 30 minutes at 37° C.): 17 nM
SMILES: CCCc1cn(Cc2c(Cl)cccc2OC)c(=O)c(NC(=O)N[C@@H](CC(=O)O)c2ccc(C)c(C)c2)c1O

- IC50 [2]: 4 nM
SMILES: Cc1cn(Cc2ccccc2Cl)c(=O)c(NC(=O)NC(CC(=O)O)c2ccco2)c1O (centres unmarked)

- IC50 [2]: 3 nM
SMILES: CCCOc1cccc([C@H](CC(=O)O)NC(=O)Nc2c(O)c(C)cn(Cc3c(Cl)cccc3OCC)c2=O)c1

- IC50 (Table 6, 30 minutes at 37° C.): 10 nM
SMILES: Cc1cn(Cc2ccccc2Cl)c(=O)c(NC(=O)N[C@@H](CC(=O)O)c2cccc(C(F)(F)F)c2)c1O

- IC50 [1]: 20 nM
SMILES: Cc1ccc([C@H](CC(=O)O)NC(=O)Nc2c(O)c3c(n(Cc4ccccc4Cl)c2=O)CCCC3)cc1

- IC50 [1]: 25 nM
SMILES: O=C(O)C[C@H](NC(=O)Nc1c(O)ccn(Cc2ccccc2Cl)c1=O)c1ccc(F)c(C(F)(F)F)c1

- IC50 (Table 6, 30 minutes at 37° C.): 25 nM
SMILES: Cc1ccc([C@H](CC(=O)O)NC(=O)Nc2c(O)c3ccccc3n(Cc3ccccc3Cl)c2=O)cc1C

- IC50 (Table 6, 30 minutes at 37° C.): 3 nM
SMILES: Cc1cn(Cc2ccccc2Cl)c(=O)c(NC(=O)N[C@@H](CC(=O)O)c2cccc(OC(C)C)c2)c1O

- IC50 (Table 6, 30 minutes at 37° C.): 20 nM
SMILES: Cc1ccc([C@H](CC(=O)O)NC(=O)Nc2c(O)c(C)cn(Cc3c(Cl)cccc3Cl)c2=O)cc1

- IC50 [2]: 8 nM
SMILES: CCc1ccc([C@H](CC(=O)O)NC(=O)Nc2c(O)c3c(n(Cc4ccccc4Cl)c2=O)CCC3)cc1

- IC50 (Table 3, 30 minutes at 37° C.): 20 nM
SMILES: Cc1cccc([C@H](CC(=O)O)NC(=O)Nc2c(O)ccn(Cc3ccccc3Cl)c2=O)c1 [(3S)-3-{[({1-[(2-chlorophenyl)methyl]-4-hydroxy-2-oxo-1,2-dihydro-3-pyridinyl}amino)carbonyl]amino}-3-(3-methylphenyl)propanoic acid]

- IC50 (Table 6, 30 minutes at 37° C.): 70 nM
SMILES: Cc1cn(Cc2ccccc2Cl)c(=O)c(NC(=O)N[C@@H](CC(=O)O)c2ccc(OC(F)(F)F)cc2)c1O

- IC50 [2]: 2 nM
SMILES: CCN(CC)c1cccc([C@H](CC(=O)O)NC(=O)Nc2c(O)c(C)cn(Cc3ccccc3Cl)c2=O)c1 [(3S)-3-[({[1-(2-chlorobenzyl)-4-hydroxy-5-methyl-2-oxo-1,2-dihydropyridin-3-yl]amino}carbonyl)amino]-3-[3-(diethylamino)phenyl]propanoic acid]

- IC50 [1]: 15 nM
SMILES: CCc1cccc([C@H](CC(=O)O)NC(=O)Nc2c(O)ccn(Cc3ccccc3Cl)c2=O)c1

- IC50 [2]: 3 nM
SMILES: CCOc1cccc([C@H](CC(=O)O)NC(=O)Nc2c(O)c(Cl)cn(Cc3c(Cl)cccc3OCC)c2=O)c1

- IC50 [1]: 40 nM
SMILES: CCCCCc1cn(Cc2ccccc2Cl)c(=O)c(NC(=O)N[C@@H](CC(=O)O)c2ccc(C)cc2)c1O

- IC50 [2]: 3 nM
SMILES: CCN(CC)c1cccc([C@H](CC(=O)O)NC(=O)Nc2c(O)c3c(n(Cc4ccccc4Cl)c2=O)CCC3)c1 [(3S)-3-{[({1-[(2-chlorophenyl)methyl]-4-hydroxy-2-oxo-2,5,6,7-tetrahydro-1H-cyclopenta[b]pyridin-3-yl}amino)carbonyl]amino}-3-[3-(diethylamino)phenyl]propanoic acid]

- IC50 [2]: 6 nM
SMILES: CCOc1ccc2cc([C@H](CC(=O)O)NC(=O)Nc3c(O)c(C)cn(Cc4c(Cl)cccc4OCC)c3=O)ccc2c1

- IC50 [1]: 15 nM
SMILES: COc1ccc([C@H](CC(=O)O)NC(=O)Nc2c(O)ccn(Cc3ccccc3Cl)c2=O)cc1F

- IC50 [1]: 2 nM
SMILES: COc1ccc([C@H](CC(=O)O)NC(=O)Nc2c(O)ccn(Cc3ccccc3Cl)c2=O)cc1OC [(3S)-3-[({[1-(2-chlorobenzyl)-4-hydroxy-2-oxo-1,2-dihydropyridin-3-yl]amino}carbonyl)amino]-3-(3,4-dimethoxyphenyl)propanoic acid]

- IC50 [1]: 2 nM
SMILES: CCOc1cc([C@H](CC(=O)O)NC(=O)Nc2c(O)ccn(Cc3ccccc3Cl)c2=O)ccc1OC [(3S)-3-[({[1-(2-chlorobenzyl)-4-hydroxy-2-oxo-1,2-dihydropyridin-3-yl]amino}carbonyl)amino]-3-(3-ethoxy-4-methoxyphenyl)propanoic acid]

- IC50 (Table 6, 30 minutes at 37° C.): 60 nM
SMILES: Cc1ccc([C@H](CC(=O)O)NC(=O)Nc2c(O)c(C(C)C)cn(Cc3ccccc3Cl)c2=O)cc1

- IC50 [1]: 3 nM
SMILES: CCOc1cccc([C@H](CC(=O)O)NC(=O)Nc2c(O)ccn(Cc3ccccc3Cl)c2=O)c1 [(3S)-3-[({[1-(2-chlorobenzyl)-4-hydroxy-2-oxo-1,2-dihydropyridin-3-yl]amino}carbonyl)amino]-3-(3-ethoxyphenyl)propanoic acid]

- IC50 (Table 6, 30 minutes at 37° C.): 5 nM
SMILES: O=C(O)C[C@H](NC(=O)Nc1c(O)ccn(Cc2ccccc2Cl)c1=O)c1cccc(OC2CCCC2)c1

The next lines start with the compound.

SMILES: Cc1ccc([C@H](CC(=O)O)NC(=O)Nc2c(O)ccn(Cc3c(C)cccc3C)c2=O)cc1
- IC50 [1]: 35 nM

SMILES: Cc1cccc(Cl)c1Cn1c2c(c(O)c(NC(=O)N[C@@H](CC(=O)O)c3cccc(OC4CC4)c3)c1=O)CCC2
- IC50 [2]: 4 nM

SMILES: CCCc1cn(Cc2ccc(Cl)cc2)c(=O)c(NC(=O)N[C@@H](CC(=O)O)c2ccc(OCC)c(OCC)c2)c1O
- IC50 [1]: 15 nM

SMILES: CCOc1cc([C@H](CC(=O)O)NC(=O)Nc2c(O)c3c(n(Cc4ccccc4Cl)c2=O)CCC3)ccc1-c1ccccc1
- IC50 [2]: 20 nM

SMILES: Cc1cccc(Cn2cccc(NC(=O)N[C@@H](CC(=O)O)c3ccc4c(c3)OCO4)c2=O)c1
- IC50 (Table 4, 30 minutes at 37° C.): 1500 nM

SMILES: Cc1ccc([C@H](CC(=O)O)NC(=O)Nc2cccn(Cc3c(C)noc3C)c2=O)cc1
- IC50 (Table 4, 30 minutes at 37° C.): 3000 nM

SMILES: Cc1ccc([C@H](CC(=O)O)NC(=O)Nc2c(Nc3cc(C)no3)ccn(Cc3ccccc3Cl)c2=O)cc1
- IC50 (Table 3, 30 minutes at 37° C.): 15 nM

SMILES: COc1ccc2cc([C@H](CC(=O)O)NC(=O)Nc3c(O)c4c(n(Cc5ccccc5Cl)c3=O)CCC4)ccc2c1
- IC50 [2]: 3 nM

SMILES: Cc1ccc([C@H](CC(=O)O)NC(=O)Nc2c(O)ccn(Cc3ccccc3C(F)(F)F)c2=O)cc1
- IC50 [1]: 20 nM

SMILES: COc1cc([C@H](CC(=O)O)NC(=O)Nc2c(O)c(C)c(C)n(Cc3c(C)cccc3Cl)c2=O)ccc1C
- IC50 [1]: 25 nM

SMILES: Cc1ccc([C@H](CC(=O)O)NC(=O)Nc2cccn(Cc3c(F)cccc3Cl)c2=O)cc1
- IC50 (Table 4, 30 minutes at 37° C.): 100 nM

SMILES: O=C(O)C[C@H](NC(=O)Nc1cccc(Oc2ccccc2)c1)c1ccc2c(c1)OCO2
- IC50 (Table 4, 30 minutes at 37° C.): 50000 nM

SMILES: CCOc1cccc(Cl)c1Cn1c(C)c(CC)c(O)c(NC(=O)N[C@@H](CC(=O)O)c2ccc(C)cc2)c1=O
- IC50 [2]: 4 nM

SMILES: Cc1ccc([C@H](CC(=O)O)NC(=O)Nc2cccn(Cc3cc(Cl)ccc3F)c2=O)cc1
- IC50 (Table 4, 30 minutes at 37° C.): 2500 nM

SMILES: COc1cccc(Cn2cccc(NC(=O)N[C@@H](CC(=O)O)c3ccc(C)cc3)c2=O)c1
- IC50 (Table 4, 30 minutes at 37° C.): 200 nM

SMILES: Cc1ccc([C@H](CC(=O)O)NC(=O)Nc2c(O)c3c(n(Cc4c(C)cccc4Cl)c2=O)CCC3)cc1
- IC50 (Table 6, 30 minutes at 37° C.): 20 nM

SMILES: O=C(O)C[C@H](NC(=O)Nc1cccn(Cc2cccs2)c1=O)c1ccc2c(c1)CCO2
- IC50 (Table 4, 30 minutes at 37° C.): 140 nM

SMILES: Cc1ccc([C@H](CC(=O)O)NC(=O)Nc2c(O)c(C)c(C)n(Cc3c(C)cccc3Cl)c2=O)cc1
- IC50 [1]: 30 nM

SMILES: Cc1ccc([C@H](CC(=O)O)NC(=O)Nc2c(O)ccn(Cc3ccc(F)cc3)c2=O)cc1
- IC50 [1]: 22 nM

SMILES: CC(C)Oc1cc([C@H](CC(=O)O)NC(=O)Nc2c(O)c3c(n(Cc4ccccc4Cl)c2=O)CCC3)ccc1Cl [(3S)-3-[({[1-(2-chlorobenzyl)-4-hydroxy-2-oxo-2,5,6,7-tetrahydro-1H-cyclopenta[b]pyridin-3-yl]amino}carbonyl)amino]-3-(4-chloro-3-isopropoxyphenyl)propanoic acid]
- IC50 [2]: 38 nM

SMILES: CCc1ccc([C@H](CC(=O)O)NC(=O)Nc2c(O)c3c(n(Cc4c(C)cccc4Cl)c2=O)CCC3)cc1
- IC50 [2]: 15 nM

SMILES: COc1ccc(Cl)c(Cn2cccc(NC(=O)N[C@@H](CC(=O)O)c3ccc(C)cc3)c2=O)c1
- IC50 [1]: 90 nM

SMILES: CC1(C)Cc2cc([C@H](CC(=O)O)NC(=O)Nc3c(O)c4c(n(Cc5ccccc5Cl)c3=O)CCC4)ccc2O1
- IC50 [2]: 3 nM

SMILES: O=C(O)C[C@H](NC(=O)Nc1c(O)c2c(n(Cc3ccccc3Cl)c1=O)CCC2)c1cccc(OC(F)(F)C(F)F)c1
- IC50 [2]: 4 nM

SMILES: Cc1ccc([C@H](CC(=O)O)NC(=O)Nc2cccn(Cc3cccs3)c2=O)cc1
- IC50 (Table 4, 30 minutes at 37° C.): 600 nM

SMILES: Cc1ccc([C@H](CC(=O)O)NC(=O)Nc2c(O)ccn(Cc3cc(C)cc(C)c3)c2=O)cc1
- IC50 [1]: 60 nM

SMILES: CCCc1ccn(Cc2ccccc2)c(=O)c1NC(=O)N[C@@H](CC(=O)O)c1ccc2c(c1)OCO2 [(3S)-3-(1,3-benzodioxol-5-yl)-3-[({[2-oxo-1-(phenylmethyl)-4-propyl-1,2-dihydro-3-pyridinyl]amino}carbonyl)amino]propanoic acid]
- IC50 (Table 3, 30 minutes at 37° C.): 10 nM

SMILES: COc1cccc(Cn2ccc(O)c(NC(=O)N[C@@H](CC(=O)O)c3ccc(C)cc3)c2=O)c1
- IC50 [1]: 40 nM

SMILES: O=C(O)C[C@@H](Cc1cccc(C(F)(F)F)c1)NC(=O)Nc1c(O)ccn(Cc2ccccc2Cl)c1=O
- IC50 [1]: 350 nM

SMILES: COc1cccc(Cl)c1Cn1ccc(O)c(NC(=O)N[C@@H](CC(=O)O)c2ccc(OC(F)(F)F)cc2)c1=O
- IC50 [1]: 40 nM

SMILES: Cc1ccc([C@H](CC(=O)O)NC(=O)Nc2cccn(Cc3cccc(C(C)(C)C)c3O)c2=O)cc1
- IC50 [1]: 4000 nM

SMILES: O=C(O)C[C@H](NC(=O)Nc1c(O)c2c(n(Cc3ccccc3Cl)c1=O)CCC2)c1ccc(C2CC2)cc1
- IC50 [2]: 25 nM

SMILES: Cc1ccc([C@H](CC(=O)O)NC(=O)Nc2cccn(Cc3c(F)cccc3F)c2=O)cc1
- IC50 (Table 4, 30 minutes at 37° C.): 300 nM
